Test results taken from US20240158446A1, “CYCLIC COMPOUND HAVING SELECTIVE INHIBITORY ACTION ON KRAS OVER HRAS AND NRAS” (CHUGAI SEIYAKU KABUSHIKI KAISHA, priority 2021, published 2024).

Key:
[1] = target: GDP-bound KRAS wild-type protein (Homo sapiens, UniProt P01116); experiment: Binding to KRAS by surface plasmon resonance (SPR), Single Cycle Kinetics; settings: SPR, Single Cycle Kinetics, GDP-bound KRAS wild-type protein; read-out: KRAS KD
[2] = target: GDP-bound HRAS wild-type protein (Homo sapiens, UniProt P01112); experiment: Binding to HRAS by surface plasmon resonance (SPR), Single Cycle Kinetics; settings: SPR, GDP-bound HRAS wild-type protein vs GDP-bound KRAS wild-type protein
[3] = target: GDP-bound NRAS wild-type protein (Homo sapiens, UniProt P01111); experiment: Binding to NRAS by surface plasmon resonance (SPR), Single Cycle Kinetics; settings: SPR, GDP-bound NRAS wild-type protein vs GDP-bound KRAS wild-type protein
Sequence of GDP-bound NRAS wild-type protein (P01111 whole entry): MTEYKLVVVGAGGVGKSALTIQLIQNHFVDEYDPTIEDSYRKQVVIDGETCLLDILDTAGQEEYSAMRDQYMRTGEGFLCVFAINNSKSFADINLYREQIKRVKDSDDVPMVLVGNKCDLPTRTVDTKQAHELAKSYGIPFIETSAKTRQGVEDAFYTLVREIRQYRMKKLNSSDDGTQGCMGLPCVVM

Sequence of GDP-bound HRAS wild-type protein (P01112 whole entry): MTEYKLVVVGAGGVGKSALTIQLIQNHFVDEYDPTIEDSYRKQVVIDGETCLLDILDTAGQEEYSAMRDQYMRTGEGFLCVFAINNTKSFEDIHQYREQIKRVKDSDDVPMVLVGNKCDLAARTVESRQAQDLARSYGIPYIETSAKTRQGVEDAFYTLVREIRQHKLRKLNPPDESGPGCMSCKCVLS
Sequence of GDP-bound KRAS wild-type protein (P01116 whole entry): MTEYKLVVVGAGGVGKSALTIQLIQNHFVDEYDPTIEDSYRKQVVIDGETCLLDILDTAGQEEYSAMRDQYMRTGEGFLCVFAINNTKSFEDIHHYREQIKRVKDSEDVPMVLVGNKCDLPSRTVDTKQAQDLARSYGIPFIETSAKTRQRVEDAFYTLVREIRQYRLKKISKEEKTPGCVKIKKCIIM

| SMILES | Kd [1] [nM] | HRAS/KRAS (ratio of KD value for HRAS to KD value for KRAS) [2] | NRAS/KRAS (ratio of KD value for NRAS to KD value for KRAS) [3] |
| --- | --- | --- | --- |
| CCO[C@@H]1C[C@H]2C(=O)NC3(CCC3)C(=O)N(C)[C@@H](C(C)(C)C)C(=O)N(C)[C@H](C(=O)N3CCOCC3)CC(=O)N(C)[C@@H](CC(C)C)C(=O)N[C@@H]([C@@H](C)CC)C(=O)N(C)CC(=O)N(C)[C@H]3CCCCN(C3=O)[C@@H](Cc3ccc(C(F)(F)F)cc3)C(=O)N(C)CC(=O)N[C@@H](CCc3cc(F)c(C(F)(F)F)c(F)c3)C(=O)N2C1 [PP0814] | 0.039 | B (a compound having 3 or more and less than 10 is denoted as B) | B (a compound having 3 or more and less than 10 is denoted as B) |
| CC[C@H](C)[C@@H]1NC(=O)[C@H](CC(C)C)N(C)C(=O)C[C@@H](C(=O)N2CCOCC2)N(C)C(=O)[C@H](C2CCCC2)N(C)C(=O)C2(CCC2)NC(=O)[C@@H]2C[C@@H](C(F)(F)F)CN2C(=O)[C@H](CCc2cc(F)c(C(F)(F)F)c(F)c2)NC(=O)CN(C)C(=O)[C@H](Cc2ccc(C(F)(F)F)cc2)N2CCCCC[C@@H](C2=O)N(C)C(=O)CN(C)C1=O [PP0818] | 1.7 | B (a compound having 3 or more and less than 10 is denoted as B) | B (a compound having 3 or more and less than 10 is denoted as B) |
| CCO[C@@H]1C[C@H]2C(=O)NC3(CCC3)C(=O)N(C)[C@@H](CC(F)F)C(=O)N(C)[C@H](C(=O)N3CCOCC3)CC(=O)N(C)[C@@H](CC(C)C)C(=O)N[C@@H]([C@@H](C)CC)C(=O)N(C)CC(=O)N(C)[C@H]3CCCCCN(C3=O)[C@@H](Cc3ccc(C(F)(F)F)cc3)C(=O)N(C)CC(=O)N[C@@H](CCc3cc(F)c(C(F)(F)F)c(F)c3)C(=O)N2C1 [PP0822] | 5.7 | B (a compound having 3 or more and less than 10 is denoted as B) | B (a compound having 3 or more and less than 10 is denoted as B) |
| CCO[C@@H]1C[C@H]2C(=O)NC3(CCC3)C(=O)N(C)[C@@H](C(C)(C)C)C(=O)N(C)[C@H](C(=O)N3CCOCC3)CC(=O)N(C)[C@@H](CC(C)C)C(=O)N[C@@H]([C@@H](C)CC)C(=O)N(C)CC(=O)N(C)[C@H]3CCCCCN(C3=O)[C@@H](Cc3ccc(C(F)(F)F)cc3)C(=O)N(C)CC(=O)N[C@@H](CCc3cc(F)c(C(F)(F)F)c(F)c3)C(=O)N2C1 [PP0823] | 0.82 | B (a compound having 3 or more and less than 10 is denoted as B) | A (a compound having 10 or more and less than 20 is denoted as A) |
| CCO[C@@H]1C[C@H]2C(=O)NC3(CCC3)C(=O)N(C)[C@@H](C3CCCC3)C(=O)N(C)[C@H](C(=O)N(C)C)CC(=O)N(C)[C@@H](CC)C(=O)N[C@@H]([C@@H](C)CC)C(=O)N(C)CC(=O)N(C)[C@H]3C/C=C\CCN(C3=O)[C@@H](Cc3ccc(C(F)(F)F)cc3)C(=O)N(C)CC(=O)N[C@@H](CCc3cc(F)c(C(F)(F)F)c(F)c3)C(=O)N2C1 [PP0824, (2S,8S,12R,14S,20S,23S,27S,30S,36S,38Z)-20-cyclopentyl-8-[2-[3,5-difluoro-4-(trifluoromethyl)phenyl]ethyl]-12-ethoxy-27-ethyl-N,N,4,19,22,26,32,35-octamethyl-30-[(1S)-1-methylpropyl]-3,6,9,15,18,21,25,28,31,34,42-undecaoxo-2-[[4-(trifluoromethyl)phenyl]methyl]spiro[1,4,7,10,16,19,22,26,29,32,35-undecazatricyclo[34.5.1.0^10,14]dotetracont-38-ene-17,1′-cyclobutane]-23-carboxamide] | 0.055 | A (a compound having 10 or more and less than 20 is denoted as A) | A (a compound having 10 or more and less than 20 is denoted as A) |
| CCO[C@@H]1C[C@H]2C(=O)NC3(CCC3)C(=O)N(C)[C@@H](C3CCCC3)C(=O)N(C)[C@H](C(=O)N3CCOCC3)CC(=O)N(C)[C@@H](CC(C)C)C(=O)N[C@@H]([C@@H](C)CC)C(=O)N(C)CC(=O)N(C)[C@H]3C/C=C\CCN(C3=O)[C@@H](Cc3ccc(C(F)(F)F)cc3)C(=O)N(C)CC(=O)N[C@@H](CCc3ccc(C(F)(F)F)c(Cl)c3)C(=O)N2C1 [PP0825, (2S,8S,12R,14S,20S,23S,27S,30S,36S,38Z)-8-[2-[3-chloro-4-(trifluoromethyl)phenyl]ethyl]-20-cyclopentyl-12-ethoxy-27-isobutyl-4,19,22,26,32,35-hexamethyl-30-[(1S)-1-methylpropyl]-23-(morpholine-4-carbonyl)-2-[[4-(trifluoromethyl)phenyl]methyl]spiro[1,4,7,10,16,19,22,26,29,32,35-undecazatricyclo[34.5.1.0^10,14]dotetracont-38-ene-17,1′-cyclobutane]-3,6,9,15,18,21,25,28,31,34,42-undecone] | 0.23 | A (a compound having 10 or more and less than 20 is denoted as A) | A (a compound having 10 or more and less than 20 is denoted as A) |
| CCO[C@@H]1C[C@H]2C(=O)NC3(CCC3)C(=O)N(C)[C@@H](C3CCCC3)C(=O)N(C)[C@H](C(=O)N(C)C)CC(=O)N(C)[C@@H](CC)C(=O)N[C@@H]([C@@H](C)CC)C(=O)N(C)CC(=O)N(C)[C@H]3CC=C(C)CN(C3=O)[C@@H](Cc3ccc(C(F)(F)F)cc3)C(=O)N(C)CC(=O)N[C@@H](CCc3cc(F)c(C(F)(F)F)c(F)c3)C(=O)N2C1 [PP0827] | 0.11 | C (A compound having a KD ratio of 0.1 or more and less than 3 is denoted as C) | C (A compound having a KD ratio of 0.1 or more and less than 3 is denoted as C) |
| CCO[C@@H]1C[C@H]2C(=O)NC3(CC(F)(F)C3)C(=O)N(C)[C@@H](C3CCCC3)C(=O)N(C)[C@H](C(=O)N3CCOCC3)CC(=O)N(C)[C@@H](CC(C)C)C(=O)N[C@@H]([C@@H](C)CC)C(=O)N(C)CC(=O)N(C)[C@H]3CC=C(C)CN(C3=O)[C@@H](Cc3ccc(C(F)(F)F)cc3)C(=O)N(C)CC(=O)N[C@@H](CCc3cc(F)c(C(F)(F)F)c(F)c3)C(=O)N2C1 [PP0828] | 0.17 | C (A compound having a KD ratio of 0.1 or more and less than 3 is denoted as C) | C (A compound having a KD ratio of 0.1 or more and less than 3 is denoted as C) |
| CCO[C@@H]1C[C@H]2C(=O)NC3(CCC3)C(=O)N(C)[C@@H](C3CCCC3)C(=O)N(C)[C@H](C(=O)N(C)C)CC(=O)N(C)[C@@H](CC)C(=O)N[C@@H]([C@@H](C)CC)C(=O)N(C)CC(=O)N(C)[C@H]3C[C@H]4C[C@H]4CN(C3=O)[C@@H](Cc3ccc(C(F)(F)F)cc3)C(=O)N(C)CC(=O)N[C@@H](CCc3cc(F)c(C(F)(F)F)c(F)c3)C(=O)N2C1 [PP0830] | 0.058 | C (A compound having a KD ratio of 0.1 or more and less than 3 is denoted as C) | C (A compound having a KD ratio of 0.1 or more and less than 3 is denoted as C) |
